{
  "source": "patent US6515025B2",
  "about": "“Use of ethynyl alanine amino diol compounds to inhibit enzymatic conversion of angiotensinogen to angiotensin I” (Pharmacia Corporation, priority 1991, dated 2003)",
  "molecular_target": "T1, renin (human plasma) (Homo sapiens, UniProt P00797)",
  "T1 construct": "the animal plasma is the source of both the renin substrate and the renin enzyme; from tissue",
  "T1 sequence (P00797 67-406)": "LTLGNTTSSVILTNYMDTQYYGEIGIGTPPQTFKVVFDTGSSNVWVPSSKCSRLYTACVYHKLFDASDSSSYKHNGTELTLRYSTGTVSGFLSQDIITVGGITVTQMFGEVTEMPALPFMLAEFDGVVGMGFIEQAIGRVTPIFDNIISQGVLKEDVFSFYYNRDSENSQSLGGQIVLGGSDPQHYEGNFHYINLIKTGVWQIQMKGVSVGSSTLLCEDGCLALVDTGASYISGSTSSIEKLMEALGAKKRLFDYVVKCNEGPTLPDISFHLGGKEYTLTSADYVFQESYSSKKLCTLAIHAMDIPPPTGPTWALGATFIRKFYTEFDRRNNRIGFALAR",
  "experiment": "Renin inhibitor species specificity, human plasma renin activity",
  "type": "biochemical",
  "procedure": "Blood was collected in a 10 ml Becton Dickinson vacutainer tube with 0.1 ml of 15% EDTA (K3) solution (15 mg) from normal animals or high renin animals; i.e., those pre-treated with 5 mg/kg of Lasix® intramuscularly 2 times within a 6 hour interval 24 hours prior to bleeding. The blood was then centrifuged at 2500 RPM for 20 minutes and the plasma from the various species respectively pooled, aliquoted and stored in the freezer. The human plasma source was taking a prescription of an angiotensin converting enzyme inhibitor.\nThe plasma renin activity assay is a modification of the human renin inhibition test in that the animal plasma is the source of both the renin substrate and the renin enzyme. In a total volume of 0.1 ml, 90 mM Tris-acetate buffer, pH 7.5, 12 mM sodium EDTA, 0.012 mg/ml neomycin sulfate, 0.9 mg/ml bovine serum albumin, 1.61 mM phenylmethyl sulfonyl fluoride, 4 mM 8-hydroxyquinoline and 0.09 ml of the animal or human plasmas were incubated for 2 hours at 37° C. in a shaking water bath or at 4° C. in an ice bath in the presence or absence of renin inhibitors. The produced angiotensin I was determined by radioimmunoassay (New England Nuclear kit).\nThe amount of angiotensin I generated during the 2 hours at 4° C. was usually less than 5% of that activity produced at 37° C.; however, the 4° C. background values were nevertheless subtracted from the 37° C. ones for the 100% activity values. The renin inhibitors were assayed in duplicate using 5 concentrations and the data is expressed as a percent of the 100% total renin activity.",
  "data": [
    {"smiles": "C#CC[C@H](NC(=O)C(CC(=O)N(C)CCN(C)C)Cc1ccccc1)C(=O)NC(CC1CCCCC1)[C@@H](O)C(O)CC(C)C", "note": "(relative stereo) [Example 1, N1-[1R*-[[[1S,1R*-(cyclohexylmethyl)-2S*,3R*-dihydroxy-5-methylhexyl]amino]carbonyl]-3-butynyl]-N4-[2-(dimethylamino)ethyl]-N4-methyl-2S*-(phenylmethyl)butanediamide]", "values": [
      {"measurement": "% of Total Renin Activity", "setting": "1 nM", "value": 90, "unit": "%"},
      {"measurement": "% of Total Renin Activity", "setting": "4 nM", "value": 50, "unit": "%"},
      {"measurement": "% of Total Renin Activity", "setting": "16 nM", "value": 10, "unit": "%"}
    ]}
  ]
}
